Like-named read-outs stand apart in the source and are kept apart here.
Assays:
Type IV PDE = assay: PDE IV inhibition: hydrolysis of [3H]-cyclic AMP by isolated Type IV PDE; assay type: biochemical, bovine
How it was run: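 Type IV PDE was partially purified from bovine tracheal smooth muscle by DEAE ion-exchange chromatography. Activity was measured as [3H]-cAMP hydrolysis at 0.2 μM cAMP (≈Km), with protein adjusted so that ≤15% of substrate was hydrolysed. Compounds were tested in 2.5% final DMSO.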

[1] = tested on: ovalbumin-sensitized guinea pigs (eosinophils in BAL); assay: Ovalbumin sensitization and challenge in guinea pigs, differential cell counts in bronchoalveolar lavage; assay type: in vivo, guinea pig; settings: 5 mg/kg ip one hour prior to ovalbumin challenge; for % Eosinophils in BAL x ± se: BAL 24 hours after aerosol exposure; for % Inhibition: eosinophils in BAL versus vehicle
Protocol: (i) The effect of test compounds in a model of bronchial hyperresponsiveness (BHR) and cellular infiltration in the guinea pig induced by ovalbumin (see, for example Morley et al, Agents and Actions, Supplement, 1988, 23, 187) were studied.
(ii) Sensitization and Challenge procedure: Male Dunkin Hartley guine pigs (Charles River) (200-250 g) were injected i.p. with ovalbumin (OVA) (0.5 ml/animal; 20 μg OVA in AlOH)3 (moist gel)); this preparation produced an injectable stable suspension containing excess Al(OH)3. Sham animals were injected with 0.5 ml Al(OH)3 alone. After a period of 18-21 days animals were exposed to an aerosol of OVA (100 μg/ml) for 1 hour in an exposure chamber.
(iii) Bronchoalveloar lavage: Animals were anaesthetized, 24 hours after aerosol exposure, with urethane (25%, w/v, 7 ml/kg, i.p.) and the trachea cannulated. Bronchoalveo-lar lavage (BAL) was performed by instilling 5 ml sterile saline into the lungs via the tracheal cannula and the fluid was immediately removed. The fluid was reinjected and the procedure repeated 5 times in total. […] Total cell counts were perfomed on the resultant BAL fluid using an improved Neubauer haemocytometer. Cytospin preparations were prepared using a Shandon Cytospin 2 centrifuge. Two drops of BAL fluid were added to each cytospin cup and the samples were centrifuged for 1 min at 1300 r.p.m. Slides were fixed in acetone and stained with haemotoxylin and carbol chromotrope according to the method described by Lendrum (Lendrum 1944), differential cell counts were performed on each slide by counting 200 cells at random, the cell types were classified as neutrophils, eosinophils and mononuclear cells according to standard morphological criteria. Cells were counted blind. The results are expressed as the number of neutrophils, eosinophils and mononuclear cells per ml of BAL fluid. The remaining BAL fluid was centrifuged (10 min., 1000 g) and the resultant cells and cell free supernatants were aliquotted and frozen for later assays. Compounds were solu-bilized in either DMSO or saline administered intraperitoreally at a dose of 5 mg/kg one hour prior to ovalbumin challenge.

[2] = tested on: Guinea pig isolated trachealis muscle; assay: Isolated guinea pig trachea: relaxation of airways muscle; assay type: cell-based; settings: compared with theophylline as standard (= 1); cumulative concentration effect curves
Protocol: The test compound was dissolved in dimethylsulfoxide. Guinea pig isolated trachealis muscle was mounted in a bath containing Krebs solution maintained at 37.5° C. and bubbled with carbogen (95% 02, 5% CO2).
Tension changes were recorded isometrically using force displacement transducers in conjunction with potentiometric pen recorders.
The ability of the test compounds to relax airways muscle was investigated by the construction of cumulative concentration effect curves. Each concentration of the test compound was allowed to equilibrate with the tissue for 5 minutes before a concentration increment (ten-fold) was made.
In each tissue the test compound was compared with theophylline as standard.

[3] = adenines, Table 7, read-out: calc PDE IV IC50

Row | SMILES | melting point [°C] | IC50 (Type IV PDE; [3]) [µM] | % Eosinophils in BAL x ± se [1] [%] | % Inhibition [1] [%] | In Vitro Activity [2] | other results
1 | CCNc1ncn(Cc2ccc(OC)c(OC3CCCC3)c2)c2nc(C(C)C)nc1-2.Cl [3-(3-Cyclopentyloxy-4-methoxybenzyl)-6-ethylamino-8-isopropyl-3H-purine Hydrochloride] |  |  | 12 ± 2 | 64 |  | IC50 (Type IV PDE; read-out: PDE IV I50): 0.32 µM
2 | COc1ccc(Cn2c(=S)[nH]c(=S)c3[nH]c(C(C)C)nc32)cc1OC1CCCC1 [3-(3-cyclopentyloxy-4-methoxybenzyl)-3,7-dihydro-8-isopropyl-2,6-dithio-1H-purine-2,6-dione] |  |  | 17 ± 3 | 47 |  | IC50 (Type IV PDE; dithioxanthines, Table 5, read-out: IC50 PDE IV): 0.6 µM; IC50 (Type IV PDE; read-out: PDE IV I50): 0.8 µM
3 | CCCCCCn1cnc(NCC)c2ncnc1-2 [6-Ethylamino-3-hexyl-3H-purine] |  |  |  |  | 25.6 | 
4 | CCNc1ncn(CCC(C)C)c2nc(C3CC3)nc1-2.Cl [8-cyclopropyl-6-ethylamino-3-(3-methylbutyl)-3H-purine hydrochloride] |  |  | 16 ± 4 | 52 |  | IC50 (Type IV PDE; adenines, Table 4, cyclic AMP 0.2 μM, read-out: calc PDE IV IC50): 2.45 µM
5 | Cn1c(=O)c2[nH]cnc2n(C)c1=O [Theophylline, reference compound] |  |  |  |  | 1 | 

Further lines, with some results ahead:

Row | melting point [°C] | IC50 (Type IV PDE; [3]) [µM] | SMILES | % Eosinophils in BAL x ± se [1] [%] | % Inhibition [1] [%] | In Vitro Activity [2] | other results
6 | 187 to 188 |  | CCNc1ncn(Cc2ccccc2)c2ncnc1-2 [3-Benzyl-6-ethylamino-3H-purine] |  |  | 18.5 | 
7 | 165 to 174 | 0.034 | COc1ccc(Cn2cnc(N)c3nc(C(C)(C)OCc4ccc(F)cc4)nc2-3)cc1OC1CCCC1.Cl [6-Amino-3-(3-cyclopentyloxy-4-methoxy-benzyl)-8-(1-(4-fluorobenzyloxy)-1-methyl-ethyl)-3H-purine hydrochloride] |  |  |  | 
8 | 201 to 203 | 0.005 | COc1ccc(Cn2cnc(N)c3nc(C(C)(C)OCc4ccccc4)nc2-3)cc1OC1CCCC1.Cl [6-Amino-8-(1-benzyloxy-1-methyl-ethyl)-3-(3-cyclopentyloxy-4-methoxy-benzyl)-3H-purine Hydrochloride] |  |  |  | 
9 | 148 to 150 | 0.85 | CCNc1ncn(Cc2ccc(OC)c(OC3CCCC3)c2)c2nc(C(C)(C)OCc3ccccc3)nc1-2.Cl [8-(1-Benzyloxy-1-methyl-ethyl)-3-(3-cyclopentyloxy-4-methoxy-benzyl)-6-ethylamino-3H-purine Hydrochloride] |  |  |  | 
10 |  | 27.1 | CCNc1ncn(CC)c2nc(C3CC3)nc1-2 [8-Cyclopropyl-3-ethyl-6-ethylamino-3H-purine] |  |  | 43.7 | 

From patent US6413975B1, “Purine derivatives having phosphodiesterase iv inhibition activity” (Euro-Celtique, S.A., priority 1999, dated 2002)
